Data as given in ChEMBL document CHEMBL1150867, “New sesquiterpene hydroquinones from a Taiwanese marine sponge, Hippospongia metachromia” (J Nat Prod, 2001).
In brackets after ≈: the same amount, converted by molar mass.

How the values were obtained:
[1] = Cytotoxicity against human KB16 cells by methylene blue dye assay
COLO 205 = assay: Cytotoxicity against human COLO205 cells by methylene blue dye assay

SMILES	IC50 [1]	IC50 (COLO 205)
C=C1[C@H](C)CCC[C@]1(C)CC[C@@]1(C)C=Cc2c(OC(C)=O)c(OC(C)=O)cc(OC)c2O1 [HIPPOCHROMIN A DIACETATE]	3.06 µg/mL	0.22 µg/mL
C=C1[C@H](C)CCC[C@]1(C)CC[C@@]1(C)C=Cc2c(OC(C)=O)c(OC)cc(OC(C)=O)c2O1 [HIPPOCHROMIN B DIACETATE]	> 10 µg/mL	> 10 µg/mL
C=C1[C@H](C)CCC[C@]1(C)CC/C(C)=C/CC1=C(OC)C(=O)C=C(OC)C1=O [METACHROMIN A MONOMETHYLATE]	> 10 µg/mL	> 10 µg/mL
C=C1[C@H](C)CCC[C@]1(C)CC/C(C)=C/CC1=C(O)C(=O)C=C(OC)C1=O [METACHROMIN A]	1.8 µg/mL (≈ 5.02 µM)	0.1 µg/mL (≈ 0.279 µM)
C=C1[C@H](C)CCC[C@]1(C)CC[C@@]1(C)C=Cc2c(OC(C)=O)c(OC)cc(OC)c2O1 [METACHROMIN B MONO METHYLATE]	1.32 µg/mL (≈ 3.18 µM)	0.53 µg/mL (≈ 1.28 µM)
C=C1[C@H](C)CCC[C@]1(C)CC[C@@]1(C)C=Cc2c(O)c(OC)cc(OC)c2O1 [METACHROMIN B]	0.68 µg/mL (≈ 1.83 µM)	0.26 µg/mL (≈ 0.698 µM)
C=C1[C@H](C)CCC[C@]1(C)CC[C@@]1(C)C=CC2=C(O1)C(=O)C=C(OC)C2=O [METACHROMIN E]	> 10 µg/mL	> 10 µg/mL
